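Growth conditions: 96-well plates. Treatment: test compound, 48 hours, 5 concentrations. Analysis: linear interpolation between bracketing concentrations; unreached endpoints set to highest concentration. GI50 is the concentration that inhibits growth by half. TGI: concentration producing complete growth inhibition.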
Assays:
Test in all cases: DTP human tumour cell line panel, 48 h
[1] = tested on: HCT-116 colon
[2] = tested on: HL-60(TB) leukemia
[3] = tested on: OVCAR-5 ovarian
[4] = tested on: DU-145 prostate
[5] = tested on: M14 melanoma
[6] = tested on: RXF 393 renal
[7] = tested on: OVCAR-3 ovarian
[8] = tested on: SW-620 colon
[9] = tested on: MDA-MB-435
[10] = tested on: K-562 leukemia

| Structure (SMILES) | TGI [1] [µM] | GI50 [2] [µM] | TGI [3] [µM] | TGI [4] [µM] | TGI [5] [µM] | TGI [6] [µM] | TGI [7] [µM] | GI50 [8] [µM] | TGI [8] [µM] | TGI [9] [µM] | GI50 [1] [µM] | TGI [2] [µM] | GI50 [3] [µM] | GI50 [4] [µM] | GI50 [5] [µM] | GI50 [6] [µM] | GI50 [7] [µM] | GI50 [9] [µM] | TGI [10] [µM] | GI50 [10] [µM] |
| --- | --- | --- | --- | --- | --- | --- | --- | --- | --- | --- | --- | --- | --- | --- | --- | --- | --- | --- | --- | --- |
| COC1=Nc2ccccc2S(=O)(=O)C=C1 | 3.46 | 1.95 | 31.1 | 31.4 | 21.4 | 8.69 | 6.79 | 0.875 | 3.46 | 24.8 | – | – | – | – | – | – | – | – | – | – |
| CC(=O)OCC1O[C@@H]([S-])C(OC(C)=O)[C@H](OC(C)=O)[C@@H]1OC(C)=O.[Au+].c1ccc(CN2[CH-]N(Cc3ccccc3)C(c3ccccc3)=C2c2ccccc2)cc1 | 3.24 | 2.24 | 3.96 | 3.54 | 3.58 | 3.51 | 2.99 | – | – | 3.1 | 1.64 | 6.12 | 1.92 | 1.89 | 1.69 | 1.63 | 1.61 | 1.66 | – | – |
| N#CC1(C=O)c2ccccc2C=CN1C(=O)c1ccccc1 (stereo unspecified) | > 100 | – | – | – | 92.4 | 53.8 | 52.8 | – | 19.3 | – | – | 45.9 | – | – | – | – | – | – | 91.6 | – |
| COc1ccc(CNc2nc3c(NC(C)=O)cc(C(F)(F)F)cc3nc2-c2ccccc2)cc1OC | > 100 | – | > 100 | – | > 100 | – | > 100 | – | > 100 | – | – | > 100 | – | – | – | – | – | – | > 100 | – |
| COc1ccc(-c2cc(-c3cc(OC)c(OC)c(OC)c3)c(C#N)c(N3CCOCC3)n2)cc1O | > 83.1 | 1.34 | > 100 | > 100 | > 100 | – | 8.33 | 3.87 | > 100 | > 43.7 | 3.36 | 3.87 | – | 5.3 | 10.1 | – | 2.81 | 3.28 | > 24.1 | 2.47 |
| CC(=O)[O-].O=C([CH-]C(=O)c1ccccc1)c1ccccc1.O=C([CH-]C(=O)c1ccccc1)c1ccccc1.[Y+3] | 19.3 | 2.44 | 80.6 | – | 18.9 | – | 15.8 | 6.18 | 46 | – | 4.97 | 10.8 | 17.3 | – | 5.34 | – | 3.12 | – | > 100 | 3.45 |
| CCC1CCc2nc3sc(C(=O)Nc4ccccc4C)c(N)c3cc2C1 (stereo unspecified) | > 100 | 0.214 | – | > 100 | – | 40.7 | > 100 | 0.388 | > 100 | – | 0.348 | 0.617 | – | 0.485 | – | 0.316 | 0.351 | – | – | – |
| CN(C)c1n/c(=N/c2ncn[nH]2)ss1 | > 100 | – | > 100 | – | > 100 | > 100 | – | – | > 100 | – | – | > 100 | – | – | – | – | – | – | > 100 | – |
| c1ccc(COCC2OC3c4ccccc4COC3C2OCc2ccccc2)cc1 (stereo unspecified) | > 100 | – | > 100 | – | > 100 | > 100 | > 100 | – | > 100 | – | – | – | – | – | – | – | – | – | > 100 | – |
| COC(=O)C(Cc1nc2ccc(Cl)cc2[nH]c1=O)/C(=N/NC(N)=O)C(=O)Nc1ccc(Cl)cc1 (stereo unspecified) | > 100 | – | > 100 | – | > 100 | > 100 | > 100 | – | > 100 | – | – | > 100 | – | – | – | – | – | – | > 100 | – |
| COc1cc(-c2cc(=O)c3cc(C)c(C)c(C(=O)O)c3o2)cc(OC)c1OC | > 100 | – | > 100 | – | > 100 | – | > 100 | – | > 100 | – | – | – | – | – | – | – | – | – | > 100 | – |
| Cn1c2cc(O)cc(O)c2c(=O)c2c([N+](=O)[O-])cccc21 | > 100 | – | > 100 | – | > 100 | > 100 | > 100 | – | > 100 | – | – | > 100 | – | – | – | – | – | – | > 100 | – |
| CNC1C(O)C(OC2C(N)CC(N)C(OC3OC(C(C)O)C(O)C(O)C3N)C2O)OCC1(C)O (stereo unspecified) | > 100 | – | > 100 | > 100 | > 100 | – | > 100 | – | > 100 | > 100 | – | > 100 | – | – | – | – | – | – | > 100 | – |
| CC/C(C)=C1\OC(=O)C(C)C(O)C(Cc2cccnc2)NC(=O)C(NC(=O)c2ncccc2O)C(C)OC1=O (stereo unspecified) | > 100 | – | > 100 | > 100 | > 100 | – | > 100 | – | > 100 | > 100 | – | > 100 | – | – | – | – | – | – | > 100 | – |
| O=C(NO)C(=O)Nc1ccc(Cl)cc1[N+](=O)[O-] | > 100 | – | > 100 | – | > 100 | > 100 | > 100 | – | > 100 | – | – | > 100 | – | – | – | – | – | – | > 100 | – |
| Cc1cc(C)nc(SC2=C(Nc3cccc(Cl)c3C)C(=O)N(Cc3ccccc3)C2=O)n1 | > 160 | > 160 | > 160 | > 160 | > 160 | – | > 160 | > 160 | > 160 | > 160 | > 160 | > 160 | > 160 | > 160 | > 160 | – | > 160 | > 160 | > 160 | > 160 |
| O=C(O)C1(Cc2cccc(Nc3nccs3)n2)CCC(Oc2cccc(Cl)c2F)CC1 (stereo unspecified) | 30.5 | 3.43 | > 81.7 | 32.3 | 30.2 | 12.8 | 36.4 | 4.31 | > 58.9 | – | 0.64 | > 67.3 | 13.8 | 14.4 | 2.96 | 0.0488 | 13.3 | – | > 56.5 | 0.468 |
| COC12CC(=O)C(C(C)=O)=C(O)C1(C)c1c(OC(C)=O)c(C)c(O)c(C(C)=O)c1O2 (stereo unspecified) | > 100 | – | > 100 | – | > 100 | 62.5 | 69.9 | – | > 100 | – | – | 42.5 | – | – | – | – | – | – | > 100 | – |
| COC(OC)[C@@H](C)[C@H](O)[C@](C)(O)C1OC(C)(C)OC(C(C)C=C(C)C)C1C (stereo partly specified) | > 100 | – | > 100 | – | > 100 | > 100 | > 100 | – | > 100 | – | – | > 100 | – | – | – | – | – | – | > 100 | – |
| CC(=O)OC1CC2C(C)(C)C(=O)C=CC2(C)C2CCC3(C)C(c4ccoc4)OC(=O)C4OC43C12C (stereo unspecified) | 11.3 | – | > 100 | 11 | 28.1 | 27.2 | > 100 | – | > 100 | – | – | > 100 | – | – | – | – | – | – | > 100 | – |
